From patent publication US20070191465A1, “Channel blocking compounds” (priority 2003, published 2007)
Where “and” joins values, the source holds several entries; their conditions need not be identical. Equal entries are not always repeated. Entries after “also recorded” stand apart in the source; their conditions may differ.

Legend:
[1] = target: T1, hSlo α subunit large conductance calcium-activated potassium (BK) channels (Homo sapiens, UniProt Q12791); assay: Inside-out patch clamp of hSlo α subunit BK channels expressed in HEK293 cells; assay type: cell-based; conditions: for BK channel current as fraction of the control response: α subunit
T1 construct: expressed in transfected cells; host or cells: HEK293 (transient; co-transfected with CD4 as a marker)
Protocol: In this experiment, hSlo α subunit large conductance calcium-activated potassium (BK) channels with an N-terminal c-myc tag in the mammalian vector pcDNA (Meera et al, 1997) were transiently expressed in human embryonic kidney cells (cell type HEK293).
Human embryonic kidney cells were grown in a mix of DMEM (Dulbecco's Modified Eagle Medium, GibcoBRL Cat#12100-038) and 2.5 mM HEPES (N-[2-Hydroxyethyl]piperazine-N′-[2-ethanesulfonic acid]), supplemented with minimal essential amino acids and 10% fetal bovine serum.
Cells were subsequently plated into 24-well plates, grown to 95% confluency and transfected 24 hours later with 10 μg of hSlo and 2 μg CD4 (pcDNA) and 2 µl Lipofectamine 2000™.
Cells were plated onto cover slips 24 hours later. CD4 antibody-labelled beads were used to identify transfected cells. Macroscopic currents were recorded from excised inside-out patches at 3 days post-transfection.
A stock of 100 μM Lolitrem B was made up in dimethyl sulfoxide (DMSO). This was diluted to the appropriate concentration in electrophysiological solutions.
The bath solution that was applied to the internal side of the cell membrane of the inside-out membrane patch was (mM): 140 KMeSO3, 2 KCl, 20 HEPES (N-[2-Hydroxyethyl]piperazine-N′-[2-ethanesulfonic acid]), 5 HEDTA (N-([2-hydroxyethyl)ethylene-diaminetriacetic acid) and 3.65 CaCl2 to give 10 μM free calcium with a pH of 7.2.
The pipette solution applied to the extemal side of the cell membrane of the inside-out membrane patch was (mM): 140 KMeSO3, 2 KCl, 20 HEPES, and 2 MgCl2, with a pH of 7.2.
Macroscopic currents were recorded in an inside-out patch-clamp configuration using an amplifier, interface and data collection software. Data were filtered at 5 kHz and sampled at 20 μs intervals. Fast capacitance compensation was used to cancel the fast transient. Leak subtraction was used although the background potassium current was small.
Channels were activated by voltage pulses to +150 mV every minute in the presence of 10 μM free calcium. Control current responses were recorded over 5 minutes. Only patches that remained stable over this time were used in experiments.
Each concentration of lolitrem B was applied for 5 minutes or until the current response had stabilised and fractional block calculated as the decrease in current as a fraction of the control. The current amplitude was the mean current over the last half of the voltage pulse to +150 mV.

[2] = target: T2, α+β1 BK channels (Homo sapiens, UniProt Q12791); assay: Patch clamp of α+β1 BK channels expressed in human embryonic kidney cells; assay type: cell-based; conditions: for IC50: IC50, α + β1, +150 mV, 10 μM internal free calcium; for h = Hill coefficient: α + β1
T2 construct: expressed in transfected cells; host or cells: human embryonic kidney cells (HEK293)
Protocol: (§1) Current amplitude (I′) 5 minutes after addition of increasing lolitriol concentrations, shown as a fraction of the control response. Lolitriol was applied to α+β1 channels (solid circles) and to α+β4 channels (open circles). 31-epilolitrem B was applied to α+β1 channels (solid triangles) and to α+β4 channels (open triangles). Shaded triangles are data points from a single cell to which the curve was fitted. Lolitrem B was applied to hSlo channels (solid squares) a previous study and is shown for comparison. The current response was averaged over the last half of a voltage pulse to +150 mV for 50 ms, with 10 μM internal free calcium. The vertical bars show ±1 S.E.M. in 3 or more cells. The curve is a fit of a Hill-type equation to the data.
(§2) We used BK channels containing beta subunits that are expressed in smooth muscle ([…]) and brain (β4). BK channels with subunit combinations α+β1 or α+β4 were expressed in human embryonic kidney cells and their function assayed by patch clamping.
(§3) hSlo α subunit large conductance calcium-activated potassium channels in pcDNA3 (Meera et al., 1997) together with the human β4 subunit in pEGFP-N1 were transiently expressed in human embryonic kidney cells (HEK293). HEK cells were grown in a mix of DMEM (Dulbecco's Modified Eagle Medium) and 2.5 mM HEPES (N-[2-Hydroxyethyl]-piperazine-N′-[2-ethanesulfonic acid]), supplemented with minimal essential amino acids and 10% fetal bovine serum. Cells were subsequently plated onto 24-well plates, grown to 95% confluency and transfected 24 hours later with 10 μg of hSlo, 8 μg of β4 and 2 μl Lipofectamine 2000™. Cells were plated onto cover slips 24 hours later. Transfected cells expressed green fluorescent protein and were identified under UV light by their fluorescence.

[3] = target: T3, α+β4 BK channels (hSlo α subunit with human β4 subunit) (Homo sapiens, UniProt Q12791); assay: Patch clamp of α+β4 BK channels expressed in human embryonic kidney cells; assay type: cell-based; conditions: for h = Hill coefficient: α + β4
T3 construct: expressed in transfected cells; host or cells: HEK293 (transient)
Protocol: as §1, §2, §3

[4] = target: T4, BK channel (Homo sapiens, UniProt Q12791); assay: Degree of antagonist inhibition of BK channels, subunit composition not stated; assay type: cell-based
[5] = tested on: mice; conditions: known from literature (Munday-Finch); cited from earlier work
[6] = target: T4, BK channel; conditions: McMillan et al., 2003; cited from earlier work

T4 sequence (Q12791 whole entry): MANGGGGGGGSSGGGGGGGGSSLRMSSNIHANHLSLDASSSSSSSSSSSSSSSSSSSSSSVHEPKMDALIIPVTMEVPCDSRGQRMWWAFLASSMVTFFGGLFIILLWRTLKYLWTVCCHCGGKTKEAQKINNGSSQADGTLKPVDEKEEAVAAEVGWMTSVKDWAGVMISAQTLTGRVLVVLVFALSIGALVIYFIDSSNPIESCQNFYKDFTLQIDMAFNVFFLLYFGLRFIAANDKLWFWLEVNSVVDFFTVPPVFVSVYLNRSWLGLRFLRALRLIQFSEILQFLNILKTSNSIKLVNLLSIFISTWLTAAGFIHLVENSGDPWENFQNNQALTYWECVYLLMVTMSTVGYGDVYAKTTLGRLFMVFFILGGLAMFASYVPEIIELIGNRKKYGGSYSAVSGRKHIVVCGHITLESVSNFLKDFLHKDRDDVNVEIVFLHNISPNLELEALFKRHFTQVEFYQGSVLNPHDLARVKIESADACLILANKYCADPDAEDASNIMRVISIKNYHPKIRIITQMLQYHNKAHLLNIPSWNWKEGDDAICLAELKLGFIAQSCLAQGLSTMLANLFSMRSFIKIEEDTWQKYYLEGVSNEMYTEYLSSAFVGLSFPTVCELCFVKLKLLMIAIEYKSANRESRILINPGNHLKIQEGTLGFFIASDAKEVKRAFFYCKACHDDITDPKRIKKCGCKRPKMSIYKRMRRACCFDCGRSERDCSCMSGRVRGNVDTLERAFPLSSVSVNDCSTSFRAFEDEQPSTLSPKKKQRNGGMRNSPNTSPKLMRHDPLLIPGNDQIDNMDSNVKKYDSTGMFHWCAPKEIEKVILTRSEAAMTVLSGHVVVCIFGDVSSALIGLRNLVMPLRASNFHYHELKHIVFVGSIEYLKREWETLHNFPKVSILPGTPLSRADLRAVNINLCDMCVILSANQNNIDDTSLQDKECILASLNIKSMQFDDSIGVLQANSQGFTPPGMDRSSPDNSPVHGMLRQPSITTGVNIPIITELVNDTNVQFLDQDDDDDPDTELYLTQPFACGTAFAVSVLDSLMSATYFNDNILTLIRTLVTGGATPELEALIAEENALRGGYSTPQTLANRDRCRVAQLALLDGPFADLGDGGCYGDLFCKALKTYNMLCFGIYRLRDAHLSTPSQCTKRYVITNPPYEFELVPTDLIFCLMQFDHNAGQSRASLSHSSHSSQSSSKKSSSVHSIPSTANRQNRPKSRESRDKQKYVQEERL
T1 sequence (Q12791 whole entry): as above
T2 sequence (Q12791 whole entry): as above
T2 sequence (Q16558 whole entry partner): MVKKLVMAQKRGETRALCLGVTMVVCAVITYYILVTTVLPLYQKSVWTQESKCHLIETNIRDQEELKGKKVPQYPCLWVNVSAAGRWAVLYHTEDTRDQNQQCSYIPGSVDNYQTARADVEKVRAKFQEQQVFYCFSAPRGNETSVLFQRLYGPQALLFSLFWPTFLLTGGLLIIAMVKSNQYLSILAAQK
T3 sequence (Q12791 whole entry): as the sequence (Q12791 whole entry) above
T3 sequence (Q86W47 whole entry partner): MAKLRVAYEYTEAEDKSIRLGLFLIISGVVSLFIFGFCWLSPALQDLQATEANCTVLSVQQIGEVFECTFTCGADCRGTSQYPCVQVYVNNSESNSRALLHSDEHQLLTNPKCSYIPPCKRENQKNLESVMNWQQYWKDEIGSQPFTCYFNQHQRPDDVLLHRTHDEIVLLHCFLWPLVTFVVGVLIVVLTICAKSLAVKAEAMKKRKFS

Compound | BK channel current as fraction of the control response ([1]; 100 nM) | IC50 [2] | h = Hill coefficient [2] | h = Hill coefficient [3] | tremorgenicity [5] | other results
CC(C)=CC1OC2C(OC3CCC4(C)C5(C)c6[nH]c7ccc8c(c7c6CC5CCC4(O)C34OC24)CC2C(C8=O)C(C)(C)OC2(C)C)C(C)(C)O1 (centres unmarked) [31-epilolitrem B] | 0.06±0.02 | ~58 nM and 58 nM | 2.7 | 2.2 | non-tremorgenic | current response as fraction of control after wash-out ([1]; after 100 nM, wash-out with control solution for 26 minutes, one experiment): 0.59; degree of antagonist inhibition ([4]; approximately 200 nM): approximately 100%
CC(C)=CCOC(C)(C)[C@H]1O[C@H]2CC[C@@]3(C)[C@@](O)(CC[C@H]4Cc5c([nH]c6ccc7c(c56)C[C@@H]5[C@@H](C7=O)C(C)(C)OC5(C)C)[C@@]43C)[C@]23O[C@@H]3[C@@H]1O [lolitrem E] | 0.01 |  |  |  | partial-tremorgenic | degree of antagonist inhibition ([1]; approximately 100 nM): approximately 100%
CC(C)=CC1OC2C(OC3CCC4(C)C5(C)c6[nH]c7ccc8c(c7c6CC5CCC4(O)C34OC24)CC2C(C8=O)C(C)(C)OC2(C)C)C(C)(C)O1 (centres unmarked) [lolitrem B] |  |  |  |  | tremorgenic | inhibition of the BK channel current (in words) ([1]; 2 nM): partial inhibition; reversal of current block by wash-out ([1]; 10 nM or greater, wash-out with control solution for 30 minutes at 4 ml/min): not able to be reversed; also recorded: could not be reversed; inhibition of the BK channel current (in words) ([1]; 20 nM applied to the perfusion bath): complete inhibition; IC50 ([1]; IC50 (concentration of half maximal inhibition), α alone, voltage pulse to +150 mV, 10 μM free calcium, Hill equation fit, 11 cells): 3.7 nM and ~3.7 nM; degree of antagonist inhibition ([1]; approximately 20 nM): approximately 97%; h = Hill coefficient ([1]; α alone): 1.7
desoxypaxilline [reference compound] |  |  |  |  | non-tremorgenic | concentration needed for the same degree of BK inhibition as paxilline [6]: 24 times
CC1(C)OC(C)(C)C2C(=O)c3ccc4[nH]c5c(c4c3CC21)C[C@@H]1CC[C@@]2(O)C3=CC(=O)[C@@H](C(C)(C)O)OC3CC[C@]2(C)[C@@]51C (some centres unmarked) [lolilline] |  |  |  |  | non-tremorgenic | 
CC(C)(O)C1OC2CCC3(C)C4(C)c5[nH]c6ccc7c(c6c5CC4CCC3(O)C23OC3C1O)CC1C(C7=O)C(C)(C)OC1(C)C (centres unmarked) [lolitriol] | 0.29 | ~195 nM and 195 nM | 2.3 | 2.7 | non-tremorgenic | BK channel current as fraction of the control response ([1]; 200 nM): 0.25; current response as fraction of control after wash-out ([1]; wash-out with control solution for 30 minutes at 4 ml/min): 0.86; concentration required to inhibit α+β4 channels compared with α+β1 channels ([3]; α+β4 versus α+β1): Twice; degree of antagonist inhibition ([4]; approximately 1000 nM): approximately 100%
